The values below come from patent US20130273564A1, “DISPERSION INJECTION METHODS FOR BIOSENSING” (priority 2010, published 2013).

The test system of the series is partially denatured carbonic anhydrase II. The settings on record: sigmoidal TDi, degraded surface, 10° C., global two-site interaction model. Here is the method:
A second sensing surface remained uncoated to provide an accurate reference surface. […] FCI was performed by separately injecting 50 μL of each dilution at a rate of 50 μL min^−1. EDTA was excluded from the buffer to maintain the binding activity of the Zn-dependent carbonic anhydrase 11.
Two separate sigmoidal TDi assays were performed. The first sigmoidal TDi assay (FIG. 8B) was performed by injecting 250 μL of analyte sample at a flow rate of 100 μL min^−1 using a dispersion tube having a total volume capacity of 512 μL and a diameter of 0.50 mm. […] The second sigmoidal TDi assay (FIG. 8C) was performed by injecting 250 μL of analyte sample at a flow rate of 50 μL min^−1 using a dispersion tube having a total volume capacity of 512 μL and a diameter of 0.50 mm. […] The carbonic anhydrase II-coated surface was permitted to degrade at 25° C. for several days before performing the sigmoid TDi analysis. The second TDi assay was performed at 10° C. to preserve weak non-specific binding in order to mimic a realistic complex data set.

For `NS(=O)(=O)c1cc(C(=O)O)c(NCc2ccco2)cc1Cl` [furosemide], the D is given as 4.49(1)×10^−10 m^2s^−1.
